Reference: patent publication US11472791B2 (Incyte Corporation, priority 2019, dated 2022)

target: CDK2/Cyclin E1 (Homo sapiens (Human), UniProt P24941); assay: CDK2/Cyclin E1 HTRF enzyme activity assay; format: biochemical; details: 1 mM ATP
Description: Assays are conducted in white 384-well polystyrene plates in a final reaction volume of 8 μL. […] HTRF signals are read after 1 hour at room temperature on a PHERAstar FS plate reader (BMG Labtech). Data is analyzed with IDBS XLFit and GraphPad Prism 5.0 software using a three or four parameter dose response curve to determine IC50 for each compound.

IC50, < 50 nM:
[2H]C([2H])([2H])NCc1ccc(-n2cc(-c3nc(N[C@H]4CCN(S(=O)(=O)c5cn(C)cn5)C[C@H]4C)ncc3C#N)cn2)c(C)n1 [Example 150, 2-(((3R,4S)-3-Methyl-1-((1-methyl-1H-imidazol-4-yl)sulfonyl)piperidin-4-yl)amino)-4-(1-(2-methyl-6-(((methyl-d3)amino)methyl)pyridin-3-yl)-1H-pyrazol-4-yl)pyrimidine-5-carbonitrile]
CN1CCN(Cc2ccc(-n3cc(-c4nc(N[C@H]5CCN(S(C)(=O)=O)C[C@H]5F)ncc4C#N)cn3)c(Cl)c2)CC1 [Example 111, 4-(1-(2-Chloro-4-((4-methylpiperazin-1-yl)methyl)phenyl)-1H-pyrazol-4-yl)-2-(((3R,4S)-3-fluoro-1-(methylsulfonyl)piperidin-4-yl)amino)pyrimidine-5-carbonitrile]
CC(C)(O)Cn1cc(-c2nc(NC3CCN(S(=O)(=O)CCCN4CCC(O)CC4)CC3)ncc2C(F)(F)F)cn1 [Example 75, 1-(3-((4-((4-(1-(2-Hydroxy-2-methylpropyl)-1H-pyrazol-4-yl)-5-(trifluoromethyl)pyrimidin-2-yl)amino)piperidin-1-yl)sulfonyl)propyl)piperidin-4-ol]
C[C@H]1C[C@H](Nc2ncc(C(F)(F)F)c(-c3cnn(C4CCOCC4)c3)n2)CCN1S(C)(=O)=O (racemic) [Example 21, (±)-N-((2S,4R)-2-Methyl-1-(methylsulfonyl)piperidin-4-yl)-4-(1-(tetrahydro-2H-pyran-4-yl)-1H-pyrazol-4-yl)-5-(trifluoromethyl)pyrimidin-2-amine]
Cc1cc(CN2CCN(C)CC2)ccc1-n1cc(-c2nc(NC3CCN(S(=O)(=O)c4cn(C)cn4)CC3)ncc2C#N)cn1 [Example 243, 2-((1-((1-Methyl-1H-imidazol-4-yl)sulfonyl)piperidin-4-yl)amino)-4-(1-(2-methyl-4-((4-methylpiperazin-1-yl)methyl)phenyl)-1H-pyrazol-4-yl)pyrimidine-5-carbonitrile]
CO[C@@H]1CCN(CCCS(=O)(=O)N2CCC(Nc3ncc(C(F)(F)F)c(-c4cnn(CC(C)(C)O)c4)n3)CC2)C1 [Example 220, (R)-1-(4-(2-((1-((3-(3-Methoxypyrrolidin-1-yl)propyl)sulfonyl)piperidin-4-yl)amino)-5-(trifluoromethyl)pyrimidin-4-yl)-1H-pyrazol-1-yl)-2-methylpropan-2-ol]
CC(=O)N1CC(NCc2ccc(-n3cc(-c4nc(NC5CCN(S(C)(=O)=O)CC5)ncc4C#N)cn3)c(Cl)c2)C1 [Example 171, 4-(1-(4-(((1-Acetylazetidin-3-yl)amino)methyl)-2-chlorophenyl)-1H-pyrazol-4-yl)-2-((1-(methylsulfonyl)piperidin-4-yl)amino)pyrimidine-5-carbonitrile]
Cc1cc(CN2CCNCC2)ccc1-n1cc(-c2nc(NC3CCN(S(=O)(=O)c4cn(C)cn4)CC3)ncc2C(F)(F)F)cn1 [Example 228, N-(1-((1-Methyl-1H-imidazol-4-yl)sulfonyl)piperidin-4-yl)-4-(1-(2-methyl-4-(piperazin-1-ylmethyl)phenyl)-1H-pyrazol-4-yl)-5-(trifluoromethyl)pyrimidin-2-amine]
N#Cc1cnc(N[C@H]2CCN(S(=O)(=O)C3CC3)C[C@H]2F)nc1-c1cnn(-c2ccc(CN[C@H]3C[C@@H](C#N)C3)cc2Cl)c1 [Example 154, 4-(1-(2-Chloro-4-((((1s,3s)-3-cyanocyclobutyl)amino)methyl)phenyl)-1H-pyrazol-4-yl)-2-(((3R,4S)-1-(cyclopropylsulfonyl)-3-fluoropiperidin-4-yl)amino)pyrimidine-5-carbonitrile]
Cc1nc(CNC(C)C)ccc1-n1cc(-c2nc(NC3CCN(S(=O)(=O)C4CC4)CC3)ncc2C#N)cn1 [Example 153, 2-((1-(Cyclopropylsulfonyl)piperidin-4-yl)amino)-4-(1-(6-((isopropylamino)methyl)-2-methylpyridin-3-yl)-1H-pyrazol-4-yl)pyrimidine-5-carbonitrile]
CC(C)(O)Cn1cc(-c2nc(NC3CCN(S(=O)(=O)CCCN4CC[C@@H](O)C4)CC3)ncc2C(F)(F)F)cn1 [Example 224, (R)-1-(3-((4-((4-(1-(2-Hydroxy-2-methylpropyl)-1H-pyrazol-4-yl)-5-(trifluoromethyl)pyrimidin-2-yl)amino)piperidin-1-yl)sulfonyl)propyl)pyrrolidin-3-ol]
CS(=O)(=O)N1CCC(Nc2ncc(C#N)c(-c3cnn(-c4ccc(CN[C@H]5C[C@@H](O)C5)cc4Cl)c3)n2)CC1 [Example 162, 4-(1-(2-Chloro-4-((((1s,3s)-3-hydroxycyclobutyl)amino)methyl)phenyl)-1H-pyrazol-4-yl)-2-((1-(methylsulfonyl)piperidin-4-yl)amino)pyrimidine-5-carbonitrile]
CS(=O)(=O)N1CCC(Nc2ncc(C#N)c(-c3cnn(-c4ccc(CN[C@H]5CCCOC5)cc4Cl)c3)n2)CC1 [Example 196, (S)-4-(1-(2-Chloro-4-(((tetrahydro-2H-pyran-3-yl)amino)methyl)phenyl)-1H-pyrazol-4-yl)-2-((1-(methylsulfonyl)piperidin-4-yl)amino)pyrimidine-5-carbonitrile]
Cc1nc(CNC(C)C)ccc1-n1cc(-c2nc(NC3CCN(S(=O)(=O)c4cn(C)cn4)CC3)ncc2Cl)cn1 [Example 274, 5-Chloro-4-(1-(6-((isopropylamino)methyl)-2-methylpyridin-3-yl)-1H-pyrazol-4-yl)-N-(1-((1-methyl-1H-imidazol-4-yl)sulfonyl)piperidin-4-yl)pyrimidin-2-amine]
Cc1nc(CNC(C)(C)C2CC2)ccc1-n1cc(-c2nc(NC3CCN(S(C)(=O)=O)CC3)ncc2C#N)cn1 [Example 263, 4-(1-(6-(((2-Cyclopropylpropan-2-yl)amino)methyl)-2-methylpyridin-3-yl)-1H-pyrazol-4-yl)-2-((1-(methylsulfonyl)piperidin-4-yl)amino)pyrimidine-5-carbonitrile]
Cc1cc(CN(C)C)ccc1-n1cc(-c2nc(NC3CCN(S(=O)(=O)c4cn(C)cn4)CC3)ncc2C(F)(F)F)cn1 [Example 106, 4-(1-(4-((Dimethylamino)methyl)-2-methylphenyl)-1H-pyrazol-4-yl)-N-(1-((1-methyl-1H-imidazol-4-yl)sulfonyl)piperidin-4-yl)-5-(trifluoromethyl)pyrimidin-2-amine]
O=S(=O)(C1CCOCC1)N1CCC(Nc2ncc(C(F)(F)F)c(-c3cnn(C4CCOCC4)c3)n2)CC1 [Example 6, 4-(1-(Tetrahydro-2H-pyran-4-yl)-1H-pyrazol-4-yl)-N-(1-((tetrahydro-2H-pyran-4-yl)sulfonyl)piperidin-4-yl)-5-(trifluoromethyl)pyrimidin-2-amine]
Cn1cnc(S(=O)(=O)N2CCC(Nc3ncc(C(F)(F)F)c(-c4cnn(C5CCOCC5)c4)n3)CC2)c1 [Example 23, N-(1-((1-Methyl-1H-imidazol-4-yl)sulfonyl)piperidin-4-yl)-4-(1-(tetrahydro-2H-pyran-4-yl)-1H-pyrazol-4-yl)-5-(trifluoromethyl)pyrimidin-2-amine]
C[C@]1(N)C[C@@H](n2cc(-c3nc(NC4CCN(S(=O)(=O)C5CCC5)CC4)ncc3C(F)(F)F)cn2)C1 [Example 46, 4-(1-((1s,3s)-3-Amino-3-methylcyclobutyl)-1H-pyrazol-4-yl)-N-(1-(cyclobutylsulfonyl)piperidin-4-yl)-5-(trifluoromethyl)pyrimidin-2-amine]
CS(=O)(=O)N1CCC(Nc2ncc(C#N)c(-c3cnn(-c4ccc(CN[C@H]5CCC[C@@H](O)C5)cc4Cl)c3)n2)CC1 [Example 180, 4-(1-(2-Chloro-4-((((1S,3R)-3-hydroxycyclohexyl)amino)methyl)phenyl)-1H-pyrazol-4-yl)-2((1-(methylsulfonyl)piperidin-4-yl)amino)pyrimidine-5-carbonitrile]
CC(C)(O)Cn1cc(-c2nc(NC3CCN(S(=O)(=O)C4CCC(N5CCCC5)CC4)CC3)ncc2C(F)(F)F)cn1 (single isomer, unassigned) [91 (peak 2), 2-Methyl-1-(4-(2-((1-((4-(pyrrolidin-1-yl)cyclohexyl)sulfonyl)piperidin-4-yl)amino)-5-(trifluoromethyl)pyrimidin-4-yl)-1H-pyrazol-1-yl)propan-2-ol]
CCN1CCN(Cc2ccc(-n3cc(-c4nc(NC5CCN(S(=O)(=O)c6cn(C)cn6)CC5)ncc4C(F)(F)F)cn3)c(C)n2)CC1 [Example 253, 4-(1-(6-((4-Ethylpiperazin-1-yl)methyl)-2-methylpyridin-3-yl)-1H-pyrazol-4-yl)-N-(1-((1-methyl-1H-imidazol-4-yl)sulfonyl)piperidin-4-yl)-5-(trifluoromethyl)pyrimidin-2-amine]
CNCc1ccc(-n2cc(-c3nc(N[C@H]4CCN(S(=O)(=O)C5CCC5)C[C@H]4F)ncc3C#N)cn2)c(Cl)c1 [Example 121, 4-(1-(2-Chloro-4-((methylamino)methyl)phenyl)-1H-pyrazol-4-yl)-2-(((3R,4S)-1-(cyclobutylsulfonyl)-3-fluoropiperidin-4-yl)amino)pyrimidine-5-carbonitrile]
CCN(CC)CCCCS(=O)(=O)N1CCC(Nc2ncc(C(F)(F)F)c(-c3cnn(CC(C)(C)O)c3)n2)CC1 [Example 79, 1-(4-(2-((1-((4-(Diethylamino)butyl)sulfonyl)piperidin-4-yl)amino)-5-(trifluoromethyl)pyrimidin-4-yl)-1H-pyrazol-1-yl)-2-methylpropan-2-ol]
